From US20100196492A1, “ELECTROSTATIC COATING OF PARTICLES FOR DRUG DELIVERY” (priority 2007, published 2010)

Assays:
LS174T cells = assay: Cytotoxicity of gelonin coated C32/DNA particles; assay type: cell-based; details: single treatment; 70 w/w C32, 600 ng DNA, 100 nM gelonin; colon cancer cells
Procedure: FIG. 14. Cytotoxity of composition on cells using a cytotoxic drug itself as the coating. 70 w/w C32 particles with 600 ng DNA were coated with 100 nM gelonin (a 28 kD protein) to test the cytotoxicity of the compostion in LS174T cells.
Unformulated gelonin is unable to reach the cytoplasm unassisted. In constrast, the gelonin coated nanoparticles are able to be effectively internalized into the cell and released from the endosomal compartment into the cytoplasm, where they are active.

HUVECs = assay: GFP transfection of confluent HUVECs in 12% serum, FACS; assay type: cell-based, Human; details: 40 w/w C32; N/P 1.55
Description: GFP Transfections. Fluorescent Activated Cell Sorting (FACS) and enhanced green fluorescent protein (EGFP) DNA were utilized to determine the efficacy of nanoparticle gene delivery. FACS data was interpreted by using a two-dimensional contour plot that compares the ratio of EGFP channel fluorescence (x-axis) to yellow channel autofluorescence (y-axis) for greater accuracy than a one-dimensional histogram as previously described. […] These experiments took place under conditions generally seen as difficult for in vitro transfection, but important for an in vivo cardiovascular application: fully confluent, and therefore non-dividing, primary cells in the presence of a high concentration of serum proteins.
GFP Transfections. Non-viral nanoparticle transfections were performed on confluent HUVECs in the presence of 12% serum. HUVECs were seeded (75,000 cells/well) into clear 24-well plates (Becton Dickinson, Franklin Lakes, N.J., USA) at 24 hours prior to transfection to allow for growth to confluence. Nanoparticles were constructed as previously mentioned using a 6 μg DNA basis per well. Then 150 μL of each polymer/DNA/peptide nanoparticle solution was added to 1.00 mL of FBS supplemented EGM-2 media (12% Serum). […]
Flow Cytometry. GFP expression was measured using Fluorescence Activated Cell Sorting (FACS) on a FACSCalibur (Becton Dickinson, San Jose, Calif., USA). […]

Substance | cells killed (LS174T cells) | transfection of HUVECs (FACS gating of GFP) (HUVECs)
gelonin | unable to kill any of the cells | –
EEEEEEEEEEEEGGGGGGGRDGS [E12-RDG] | – | do not
